This note sets out measurements from US8426406B2, “Glucocorticoid receptor agonist comprising 2,2,4-trimethyl-6-phenyl-1,2-dihydroquinoline derivatives having substituted oxy group” (Santen Pharmaceutical Co., Ltd., priority 2008, dated 2013).

Usually Emax stands for the greatest response seen or fitted, relative to the assay's reference.

SMILES strings stand for the structures.

The test relates to IL-6 production induced by lipopolysaccharide (LPS) in human corneal epithelial cells. Put plainly: Evaluation test for GR agonist activity: inhibition of LPS-induced IL-6 production in human corneal epithelial cells (HCE-T). It counts as cell-based. The note with it: Corneal epithelial cell, 10 μL of 100 μM test compound solution per well, 4 hours incubation, efficacy relative to DEX. How it is done: In order to evaluate a GR agonist activity of the present compound, the inhibitory effects on the IL-6 production induced by lipopolysaccharide (LPS) in human corneal epithelial cells. IL-6 levels in the conditioned medium were measured using the HTRF human IL-6 Kit (boehringer-Ingelheim, Cat No. 62IL6PEB), and the procedure was carried out according to the protocol attached to the kit. Hereinafter, the specific method will be described.
LPS solution: After LPS was dissolved in phosphate buffer solution (hereinafter referred to as PBS(−)), the resulting solution was diluted with 10% FBS-DMEM/F12 medium, whereby a 1 μg/mL LPS solution was prepared.
After a test compound was dissolved in dimethylsulfoxide (hereinafter referred to as DMSO), the resulting solution was diluted with 10% FBS-DMEM/F12 medium, whereby a 100 μM test compound solution was prepared. A 100 μM DEX solution was prepared by the same method, and the inhibitory ratio of IL-6 production of DEX was evaluated to use for calculating efficacy (% DEX).
Used cell: SV40-immortalized human corneal epithelial cells (HCE-T) (RIKEN)
1) HCE-T cells were harvested, and seeded at 2.0×10^4 cells/0.1 mL/well in a 96-well plate.
2) After incubation overnight, the medium was removed and a 80 μL of new 10% FBS-DMEM/Ham's F12 medium was added into each well.
3) A 10 μL of test compounds solution was added into each well.
4) A 10 μL of LPS solution was added into each well.
5) As a negative control, a 10 μL of 10% FBS-DMEM/Ham's F12 medium was added into each well instead of a test compound solution and a LPS solution.
6) As a positive control, a 10 μL of 10% FBS-DMEM/Ham's F12 medium containing 1% DMSO was added into each well instead of a test compound solution.
7) After 4 hours incubation, supernatants were collected and IL-6 levels in the supernatants were quantitated using the HTRF human IL-6 Kit.
8) The inhibition ratio of IL-6 production (%) was calculated according to the following equation.
The inhibition ratio of IL-6 production (%) was calculated according to the following equation. The inhibition ratio of IL-6 production(%)=100×[1−(IL-6 level in each group−mean value of IL-6 level in negative control)/(mean value of IL-6 level in positive control−mean value of IL-6 level in negative control)](%)
Furthermore, the inhibition ratio of IL-6 production (efficacy (% DEX)) was also calculated according to the following equation. Efficacy(% DEX)=100×{(mean value of IL-6 inhibition in compound-treated group)/(mean value of IL-6 inhibition in DEX-treated group)}(%) (Result and Discussion)
`COc1cc(OC(=O)c2cccnc2OC)ccc1-c1ccc2c(c1CNc1cc(F)ccc1C)C(C)=CC(C)(C)N2` [Compound 1-125, 5-(5-Fluoro-2-methylphenylaminomethyl)-6-[2-methoxy-4-(2-methoxypyridin-3-ylcarbonyloxy)phenyl]-2,2,4-trimethyl-1,2-dihydroquinoline] yielded a maximum response (Emax) of 81%.
In turn, `COC(=O)c1cccc(C(=O)Oc2ccc(-c3ccc4c(c3COc3cc(F)ccc3C)C(C)=CC(C)(C)N4)c(OC)c2)c1` [Compound 1-54, 5-(5-Fluoro-2-methylphenoxymethyl)-6-[2-methoxy-4-(3-methoxycarbonylbenzoyloxy)phenyl]-2,2,4-trimethyl-1,2-dihydroquinoline] gave an Emax of 75%.
As for `CCN(CCN(C)C)C(=O)Oc1ccc(-c2ccc3c(c2COc2cc(F)ccc2C)C(C)=CC(C)(C)N3)c(OC)c1` [Compound 6-20, 6-[4-[N-(2-Dimethylaminoethyl)-N-ethylaminocarbonyloxy]-2-methoxyphenyl]-5-(5-fluoro-2-methylphenoxymethyl)-2,2,4-trimethyl-1,2-dihydroquinoline], the Emax amounted to 79%.
In the case of `COc1cc(OC(=O)c2ccccc2C)ccc1-c1ccc2c(c1COC(=O)c1ccc(C)s1)C(C)=CC(C)(C)N2` [Compound 1-143, 6-[2-Methoxy-4-(2-methylbenzoyloxy)phenyl]-5-(5-methylthiophen-2-ylcarbonyloxymethyl)-2,2,4-trimethyl-1,2-dihydroquinoline] it was 96%.
The molecule `COc1ccccc1NCc1c(-c2ccc(OC(=O)c3ccccc3)cc2OC)ccc2c1C(C)=CC(C)(C)N2` [Compound 1-92, 6-(4-Benzoyloxy-2-methoxyphenyl)-5-(2-methoxyphenylaminomethyl)-2,2,4-trimethyl-1,2-dihydroquinoline] displayed an Emax of 79%.
`COc1cc(OC(=O)c2cccnc2)ccc1-c1ccc2c(c1COc1cc(F)ccc1C)C(C)=CC(C)(C)N2` [Compound 1-8, 5-(5-Fluoro-2-methylphenoxymethyl)-6-[2-methoxy-4-(pyridin-3-ylcarbonyloxy)phenyl]-2,2,4-trimethyl-1,2-dihydroquinoline]: the Emax worked out at 94%.
As to `COc1cc(OC(=O)c2ccccc2OC(C)=O)ccc1-c1ccc2c(c1COc1cc(F)ccc1C)C(C)=CC(C)(C)N2` [Compound 1-36, 6-[4-(2-Acetoxybenzoyloxy)-2-methoxyphenyl]-5-(5-fluoro-2-methylphenoxymethyl)-2,2,4-trimethyl-1,2-dihydroquinoline], the Emax was found to be 75%.
In the case of `CCCS(=O)(=O)Oc1ccc(-c2ccc3c(c2CNc2cc(F)ccc2C)C(C)=CC(C)(C)N3)c(OC)c1` [Compound 4-21, 5-(5-Fluoro-2-methylphenylaminomethyl)-6-(2-methoxy-4-propylsulfonyloxyphenyl)-2,2,4-trimethyl-1,2-dihydroquinoline] it was 82%; in that of `CCCS(=O)(=O)Oc1ccc(-c2ccc3c(c2COC(=O)c2ccc(C)s2)C(C)=CC(C)(C)N3)c(OC)c1` [Compound 4-27, 6-(2-Methoxy-4-propylsulfonyloxyphenyl)-5-(5-methylthiophen-2-ylcarbonyloxymethyl)-2,2,4-trimethyl-1,2-dihydroquinoline], 101%; in that of `COc1cc(OC(=O)Cc2ccccc2)ccc1-c1ccc2c(c1COc1cc(F)ccc1C)C(C)=CC(C)(C)N2` [Compound 1-15, 5-(5-Fluoro-2-methylphenoxymethyl)-6-(2-methoxy-4-phenylacetoxyphenyl)-2,2,4-trimethyl-1,2-dihydroquinoline], 77%.
The value for `COc1cc(OC(=O)c2ccc(C)nc2)ccc1-c1ccc2c(c1COC(=O)c1ccc(C)s1)C(C)=CC(C)(C)N2` [Compound 1-128, 6-[2-Methoxy-4-(6-methylpyridin-3-ylcarbonyloxy)phenyl]-5-(5-methylthiophen-2-ylcarbonyloxymethyl)-2,2,4-trimethyl-1,2-dihydroquinoline] was 79%; that for `COc1cc(OC(=O)c2ccc(Cl)cc2)ccc1-c1ccc2c(c1COC(=O)c1ccc(C)s1)C(C)=CC(C)(C)N2` [Compound 1-141, 6-[4-(4-Chlorobenzoyloxy)-2-methoxyphenyl]-5-(5-methylthiophen-2-ylcarbonyloxymethyl)-2,2,4-trimethyl-1,2-dihydroquinoline] was 78%; that for `COc1cc(OC(=O)c2ccco2)ccc1-c1ccc2c(c1COC(=O)c1ccc(Br)s1)C(C)=CC(C)(C)N2` [Compound 1-162, 5-(5-Bromothiophen-2-ylcarbonyloxymethyl)-6-[4-(furan-2-ylcarbonyloxy)-2-methoxyphenyl]-2,2,4-trimethyl-1,2-dihydroquinoline] was 81%.
`COc1ccc(C(=O)OCc2c(-c3ccc(OC(=O)c4cccnc4)cc3OC)ccc3c2C(C)=CC(C)(C)N3)cc1` [Compound 1-157, 5-(4-Methoxybenzoyloxymethyl)-6-[2-methoxy-4-(pyridin-3-ylcarbonyloxy)phenyl]-2,2,4-trimethyl-1,2-dihydroquinoline] displayed an Emax of 76%.
`COc1cc(OC(=O)C(C)(C)C)ccc1-c1ccc2c(c1COc1cc(F)ccc1C)C(C)=CC(C)(C)N2` [Compound 1-58, 6-(4-t-Butylcarbonyloxy-2-methoxyphenyl)-5-(5-fluoro-2-methylphenoxymethyl)-2,2,4-trimethyl-1,2-dihydroquinoline] displayed an Emax of 76%.
The molecule `COc1ccccc1NCc1c(-c2ccc(OC(=O)c3ccccc3F)cc2OC)ccc2c1C(C)=CC(C)(C)N2` [Compound 1-101, 6-[4-(2-Fluorobenzoyloxy)-2-methoxyphenyl]-5-(2-methoxyphenylaminomethyl)-2,2,4-trimethyl-1,2-dihydroquinoline] came in with an Emax of 81%.
Turning to `COc1ccccc1NCc1c(-c2ccc(OC(=O)c3ccc(F)cc3)cc2OC)ccc2c1C(C)=CC(C)(C)N2` [Compound 1-110, 6-[4-(4-Fluorobenzoyloxy)-2-methoxyphenyl]-5-(2-methoxyphenylaminomethyl)-2,2,4-trimethyl-1,2-dihydroquinoline], the Emax was determined as 83%.
For `COc1ccccc1NCc1c(-c2ccc(OC(=O)c3ccccc3SC)cc2OC)ccc2c1C(C)=CC(C)(C)N2` [Compound 1-111], the Emax was 81%.
The value for `COc1cc(OC(=O)c2ccccc2)ccc1-c1ccc2c(c1COC(=O)c1ccc(C)s1)C(C)=CC(C)(C)N2` [Compound 1-142, 6-(4-Benzoyloxy-2-methoxyphenyl)-5-(5-methylthiophen-2-ylcarbonyloxymethyl)-2,2,4-trimethyl-1,2-dihydroquinoline] was 97%; that for `COc1cc(OC(=O)c2ccc(C)o2)ccc1-c1ccc2c(c1COc1cc(F)ccc1C)C(C)=CC(C)(C)N2` [Compound 1-48, 5-(5-Fluoro-2-methylphenoxymethyl)-6-[2-methoxy-4-(5-methylfuran-2-ylcarbonyloxy)phenyl]-2,2,4-trimethyl-1,2-dihydroquinoline] was 73%.
`COc1ccccc1NCc1c(-c2ccc(OC(=O)c3cccs3)cc2OC)ccc2c1C(C)=CC(C)(C)N2` [Compound 1-104, 5-(2-Methoxyphenylaminomethyl)-6-[2-methoxy-4-(thiophen-2-ylcarbonyloxy)phenyl]-2,2,4-trimethyl-1,2-dihydroquinoline] had an Emax of 84%.
